This is an account of results in ChEMBL document CHEMBL1124911, “Inhibition of human leukocyte elastase. 2. Inhibition by substituted cephalosporin esters and amides” (J Med Chem, 1990).

Assay [1] addresses T1, Neutrophil elastase (Homo sapiens) (UniProt P08246).
T1 sequence (whole entry): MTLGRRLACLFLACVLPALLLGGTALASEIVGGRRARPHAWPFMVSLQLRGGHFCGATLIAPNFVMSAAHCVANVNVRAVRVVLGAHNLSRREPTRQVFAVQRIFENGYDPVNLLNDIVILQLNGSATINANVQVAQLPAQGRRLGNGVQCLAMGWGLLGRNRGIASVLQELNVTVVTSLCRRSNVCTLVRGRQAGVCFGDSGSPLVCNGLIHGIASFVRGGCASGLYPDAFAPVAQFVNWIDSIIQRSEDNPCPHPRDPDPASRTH
Description: Second-order rate constant for time-dependent inactivation of leukocyte elastase

The target of assay [2] is T2, Neutrophil elastase (Homo sapiens, UniProt P08246).
T2 sequence (P08246 whole entry): T1 sequence (whole entry)
Put plainly: In vitro inhibition of Human Leukocyte Elastase (HLE).

The target of assay [3] is T1, Neutrophil elastase (Homo sapiens). Put plainly: Second-order rate constant for time-dependent inactivation of Human Leukocyte Elastase was determined; G means no time-dependent inhibition was observed.
For assay [4] the target is unchanged. This is another data set of the same source.
Description: Second-order rate constant for time-dependent inactivation of Human Leukocyte Elastase was determined; H means an inverse progress curve was observed
Assay [5] has the same target. The source holds these as a separate data set.

pIC50: −log10 of the molar value. Bounds are passed on as bounds.

As to `CO[C@H]1C(=O)N2C(C(=O)N(C)CCC(=O)O)=C(COC(C)=O)CS(=O)(=O)[C@H]12`, the K obs / 1 in assay [1] turned out to be 500 M⁻¹ s⁻¹.
For `CO[C@H]1C(=O)N2C(C(=O)O)=C(COC(C)=O)CS(=O)(=O)[C@H]12`, the negative logarithm of the IC50 (pIC50) (as a rule, the IC50 on a negative log10 scale, so that one unit is a factor of ten) in assay [2] was below 4.30.
In turn, `CO[C@H]1C(=O)N2C(C(=O)N3CCCC3)=C(COC(C)=O)CS(=O)(=O)[C@H]12` returned a K obs / 1 in assay [1] of 27000 M⁻¹ s⁻¹.
Turning to `CO[C@H]1C(=O)N2C(C(=O)OCc3ccc(C(=O)OC(C)(C)C)cc3)=C(COC(C)=O)CS(=O)(=O)[C@H]12`, the “K obs / 1” value in assay [3] was “No time-dependent inhibition was observed”. This molecule had a pIC50 in assay [2] of 6.40.
Turning to `CO[C@H]1C(=O)N2C(C(=O)NC(C)(C)C)=C(COC(C)=O)CS(=O)(=O)[C@H]12`, the K obs / 1 in assay [1] was found to be 2200 M⁻¹ s⁻¹. This molecule had a pIC50 in assay [2] of 6.10.
As to `CO[C@H]1C(=O)N2C(C(=O)OCc3ccccc3)=C(COC(C)=O)CS(=O)(=O)[C@H]12`, the “K obs / 1” value in assay [3] was “No time-dependent inhibition was observed”. Besides, in assay [2], the pIC50 is 7.15.
In turn, `CO[C@H]1C(=O)N2C(C(=O)N(C)CC(=O)OC(C)(C)C)=C(COC(C)=O)CS(=O)(=O)[C@H]12` had a pIC50 in assay [2] of 6.70.
`CO[C@H]1C(=O)N2C(C(=O)OCc3ccc(C(C)(C)C)cc3)=C(COC(C)=O)CS(=O)(=O)[C@H]12`: the “K obs / 1” value in assay [4] is “Inverse progress curve was observed”. The molecule also gave a pIC50 in assay [2] of 6.70.
In assay [2], `CCOC(=O)COC(=O)C1=C(COC(C)=O)CS(=O)(=O)[C@@H]2[C@@H](OC)C(=O)N12` had a negative logarithm of the IC50 (pIC50) of 7.00.
In turn, `CO[C@H]1C(=O)N2C(C(=O)NCC(=O)O)=C(COC(C)=O)CS(=O)(=O)[C@H]12` gave a pIC50 in assay [2] below 4.30.
As to `CO[C@H]1C(=O)N2C(C(=O)N(C)CC(=O)O)=C(COC(C)=O)CS(=O)(=O)[C@H]12`, the K obs / 1 in assay [1] is 300 M⁻¹ s⁻¹. Besides, in assay [2], the pIC50 was 5.30.
The corresponding values for `CO[C@H]1C(=O)N2C(C(=O)N(C)C)=C(COC(C)=O)CS(=O)(=O)[C@H]12` are 3900 M⁻¹ s⁻¹ and 5.70.
In assay [1], `COC(=O)CCN(C)C(=O)C1=C(COC(C)=O)CS(=O)(=O)[C@@H]2[C@@H](OC)C(=O)N12` had a K obs / 1 of 6200 M⁻¹ s⁻¹.
`CCCC[C@H](NC(=O)OC(C)(C)C)[C@@H](O)C(=O)O[C@H]1C[C@@]2(O)[C@@H](OC(=O)c3ccccc3)[C@@H]3[C@]4(OC(C)=O)CO[C@@H]4C[C@H](O)[C@@]3(C)[C@@H](O)[C@H](OC(C)=O)C(=C1C)C2(C)C`: the K obs / 1 in assay [1] stood at 900 M⁻¹ s⁻¹.
`CO[C@H]1C(=O)N2C(C(=O)OC(C)(C)C)=C(COC(C)=O)CS(=O)(=O)[C@H]12`: the K obs / 1 in assay [5] came to 16000 M⁻¹ s⁻¹.
With `CO[C@H]1C(=O)N2C(C(=O)NCCC(=O)O)=C(COC(C)=O)CS(=O)(=O)[C@H]12`, the pIC50 in assay [2] was below 4.30.
Molecule `COC(=O)C1=C(COC(C)=O)CS(=O)(=O)[C@@H]2[C@@H](OC)C(=O)N12` came in with a K obs / 1 in assay [5] of 17000 M⁻¹ s⁻¹. In assay [2], the pIC50 is 6.70.
`CO[C@H]1C(=O)N2C(C(=O)N3CCOCC3)=C(COC(C)=O)CS(=O)(=O)[C@H]12` displayed a K obs / 1 in assay [1] of 35000 M⁻¹ s⁻¹.
Turning to `COc1ccc(COC(=O)C2=C(COC(C)=O)CS(=O)(=O)[C@@H]3[C@@H](OC)C(=O)N23)cc1`, the “K obs / 1” value in assay [4] is on record as “Inverse progress curve was observed”. In assay [2], this molecule had a pIC50 of 7.00.
`CO[C@H]1C(=O)N2C(C(=O)N(C)Cc3ccc(C(=O)O)cc3)=C(COC(C)=O)CS(=O)(=O)[C@H]12` returned a K obs / 1 in assay [1] of 8600 M⁻¹ s⁻¹. This molecule gave a pIC50 in assay [2] of 6.40.
For the molecule `COC(=O)CN(C)C(=O)C1=C(COC(C)=O)CS(=O)(=O)[C@@H]2[C@@H](OC)C(=O)N12`, the K obs / 1 in assay [1] is 9500 M⁻¹ s⁻¹.
